Test results as given in patent US12653796B2, “Compounds for use (in particular RIPA-56) in the prevention and/or treatment of non-alcoholic fatty liver disease” (SORBONNE UNIVERSITE, priority 2019, dated 2026).

How the values were obtained:
[1] = system: primary human steatotic hepatocytes; experiment: Fat depletion in primary human hepatocytes isolated from steatotic livers of patients with NAFLD; assay type: cell-based; conditions: 20 μM, 24 h
Experimental: FIG. 7. RIPA-56 treatment induces fat depletion in primary human hepatocytes. Primary human hepatocytes were isolated from steatotic human livers of patients with NAFLD (n=5) (A-C) or from non-steatotic human livers and incubated with free fatty acids to induce steatosis or without (W/O) (n=5) (D-G), and treated with RIPA-56 (20 μM) or DMSO (vehicle) for 24 h. (A, D) Representative Oil Red-O and DAPI images; (B, E) Quantification of Oil Red-O staining normalized for the number of DAPI-stained nuclei; (C, F) Quantification of intracellular triglycerides normalized to protein content; (G) mRNA levels of CPT1A, MTTP and APOB100 were assessed by RT-qPCR, and shown relative to DMSO-treated hepatocytes. Results are shown as mean±SEM; n.s., not significant; *p<0.05; **p<0.01; scale bars, 100 μm. […]
The liver fragment was initially perfused with a prewarmed (37° C.) calcium-free buffer supplemented with 5 mmol/L ethylene glycol tetra-acetic acid (Sigma) followed by perfusion with a prewarmed (37° C.) buffer containing 6 mmol/L calcium (CaCl2) and collagenase 0.05% ([…]) (Sigma). […] The count of viable cells was determined using trypan blue exclusion. […]
Intracellular lipids were stained by means of Oil Red-O (Sigma). […] Fluorescence images were viewed with IX83 Olympus microscope, acquired with Cell-Sens V1.6 and analyzed with FIJI software. […]

[2] = system: primary human hepatocytes; experiment: Fat depletion in primary human hepatocytes with free fatty acid-induced steatosis; assay type: cell-based; conditions: 20 μM, 24 h
Experimental: FIG. 7. RIPA-56 treatment induces fat depletion in primary human hepatocytes. Primary human hepatocytes were isolated from steatotic human livers of patients with NAFLD (n=5) (A-C) or from non-steatotic human livers and incubated with free fatty acids to induce steatosis or without (W/O) (n=5) (D-G), and treated with RIPA-56 (20 μM) or DMSO (vehicle) for 24 h. (A, D) Representative Oil Red-O and DAPI images; (B, E) Quantification of Oil Red-O staining normalized for the number of DAPI-stained nuclei; (C, F) Quantification of intracellular triglycerides normalized to protein content; (G) mRNA levels of CPT1A, MTTP and APOB100 were assessed by RT-qPCR, and shown relative to DMSO-treated hepatocytes. Results are shown as mean±SEM; n.s., not significant; *p<0.05; **p<0.01; scale bars, 100 μm. These findings are representative of five independent cell preparations.
FIG. 9. MLKL controls intrahepatic triglyceride content in hepatocytes. (A-D) Primary human hepatocytes were isolated from non-steatotic human livers and incubated with free fatty acids to induce steatosis, or without (W/O), and treated with necrosulfonamide (NSA) (20 μM) or DMSO (vehicle) for 24 h. (A) Representative Oil Red-O and DAPI images; (B) Quantification of Oil Red-O staining normalized for the number of DAPI-stained nuclei; (C) Quantification of intracellular triglycerides normalized to protein content. (D) mRNA levels of CPT1A, MTTP and APOB100 were assessed by RT-qPCR and shown relative to DMSO-treated hepatocytes; (E-H) AML-12 cells were knocked-out (KO) for MLKL and compared with control (CTL) cells, which underwent a similar CRISPR-Cas9 selection as KO cells; (E) Whole-cell lysates were extracted from CTL and MLKL-KO AML-12 cells and analyzed by Western blot using antibodies against MLKL, Tubulin and GAPDH; (F) Representative Oil Red-O and DAPI images; (G) Oil Red-O staining and (H) triglycerides quantification in fat-loaded cell lines. Results are shown as mean±SEM; n.s., not significant; *p<0.05; **p<0.01; ***p<0.001; scale bars, 100 μm. These experiments are representative of five independent cell preparations.
The liver fragment was initially perfused with a prewarmed (37° C.) calcium-free buffer supplemented with 5 mmol/L ethylene glycol tetra-acetic acid (Sigma) followed by perfusion with a prewarmed (37° C.) buffer containing 6 mmol/L calcium (CaCl2) and collagenase 0.05% ([…]) (Sigma). The liver fragment was then gently shaken to disperse liver cells in Hepatocyte Wash Medium (Life Technologies, Villebon-sur-Yvette, France). The resulting cell suspension was filtered through a gauze-lined funnel. Cells were then centrifuged at low speed. The supernatant, containing damaged or dead hepatocytes, non-parenchymal cells and debris were removed and pelleted hepatocytes were re-suspended in Hepatocyte Wash Medium. The count of viable cells was determined using trypan blue exclusion. Freshly isolated normal (steatosis <5%) or steatotic (>10%) hepatocytes were resuspended in Williams medium E (Life technologies) containing 10% fetal calf serum (Eurobio), penicillin (200 U/mL)-streptomycin (200 μg/mL), Fungizone (2.5 μg/mL) and insulin (0.1 U/mL) (Life Technologies). The cells were seeded in 12-, 24- and 96-well plates pre-coated with type I collagen at a density of 0.78×10^6, 0.4×10^6 and 0.5×10^5 viable cells/well, respectively, and incubated overnight at 37° C. in a 5% CO2 atmosphere. The medium was replaced with fresh complete hepatocyte medium supplemented with 1 μmol/L hydrocortisone hemisuccinate (Laboratoires SERB, Paris, France) and hepatocytes were maintained in this medium. To induce steatosis in normal hepatocytes, PHH were incubated with free fatty acid (FFA) mixtures of oleic acid and palmitic acid in a molar ratio 2:1 (500:250 μmol/L), respectively, and with 1% fatty-acid-free BSA for 48 hours.
Total RNA was purified from liver tissue using TRIzol reagent (ThermoFisher) and a RNeasy Mini kit (Qiagen, Courtaboeuf, France). […]

[3] = molecular target: T1, receptor-interacting protein kinase 1 (RIPK1) (Homo sapiens, UniProt Q13546); conditions: Ren et al., J Med Chem 2017; cited from earlier work
T1 sequence (Q13546 1-671): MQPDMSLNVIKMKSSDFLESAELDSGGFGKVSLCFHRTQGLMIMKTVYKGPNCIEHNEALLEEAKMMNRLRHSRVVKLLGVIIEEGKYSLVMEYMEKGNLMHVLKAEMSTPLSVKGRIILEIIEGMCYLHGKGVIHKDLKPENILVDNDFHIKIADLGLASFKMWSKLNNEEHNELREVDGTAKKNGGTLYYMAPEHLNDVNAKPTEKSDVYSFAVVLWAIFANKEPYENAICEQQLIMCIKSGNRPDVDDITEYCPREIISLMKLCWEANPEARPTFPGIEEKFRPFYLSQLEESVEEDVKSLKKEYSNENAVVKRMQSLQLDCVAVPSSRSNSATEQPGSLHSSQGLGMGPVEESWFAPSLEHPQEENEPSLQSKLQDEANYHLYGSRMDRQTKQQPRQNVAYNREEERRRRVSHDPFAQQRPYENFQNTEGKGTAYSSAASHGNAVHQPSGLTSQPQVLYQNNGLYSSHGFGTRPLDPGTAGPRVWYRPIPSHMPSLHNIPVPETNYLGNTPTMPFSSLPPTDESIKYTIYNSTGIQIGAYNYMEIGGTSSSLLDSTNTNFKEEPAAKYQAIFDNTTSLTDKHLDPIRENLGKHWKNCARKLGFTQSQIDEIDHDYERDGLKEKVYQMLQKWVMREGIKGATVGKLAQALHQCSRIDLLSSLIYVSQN

Compound: CCC(C)(C)C(=O)N(O)Cc1ccccc1 [RIPA-56, N-Benzyl-N-hydroxy-2,2-dimethylbutanamide]
- intracellular lipid droplets (Oil Red-O) [1]: marked decrease
- intracellular triglyceride content [1]: marked decrease
- intracellular lipid droplets (Oil Red-O) ([2]; FFA-induced steatosis): significant decrease
- intracellular triglyceride content ([2]; FFA-induced steatosis): significant decrease
- CPT1A, APOB100 and MTTP expression (mRNA) ([2]; RT-qPCR): up-regulation
- RIPK1 inhibitor profile [3]: selective and metabolically stable inhibitor
